{
  "source": "ChEMBL document CHEMBL1123141",
  "about": "“N-[2-hydroxy-5-[2-(methylamino)ethyl]phenyl]methanesulfonamide. A potent agonist which releases intracellular calcium by activation of alpha 1-adrenoceptors” (J Med Chem, 1985)",
  "key": {"[1]": {"biological_target": "T1, Alpha-1A adrenergic receptor (Homo sapiens) (UniProt P35348)", "T1 sequence (whole entry)": "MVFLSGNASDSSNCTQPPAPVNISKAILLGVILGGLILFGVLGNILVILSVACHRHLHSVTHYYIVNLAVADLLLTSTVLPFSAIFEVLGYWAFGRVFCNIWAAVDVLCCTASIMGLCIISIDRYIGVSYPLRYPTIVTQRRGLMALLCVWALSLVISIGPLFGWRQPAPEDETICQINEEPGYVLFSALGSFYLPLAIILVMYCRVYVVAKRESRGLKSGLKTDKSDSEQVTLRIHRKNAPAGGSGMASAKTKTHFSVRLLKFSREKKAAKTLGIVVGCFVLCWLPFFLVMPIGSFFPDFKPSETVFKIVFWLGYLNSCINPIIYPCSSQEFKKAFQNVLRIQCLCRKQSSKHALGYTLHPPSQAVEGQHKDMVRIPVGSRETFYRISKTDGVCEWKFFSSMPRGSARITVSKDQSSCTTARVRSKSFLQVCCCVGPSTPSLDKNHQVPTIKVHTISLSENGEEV", "assay": "Effect of 1 uM external [Ca2+] on the contractions induced by compound in the canine saphenous vein at EC50 concentration and expressed as percent of control response in […] Ca+; absolute concentration 5.0 +/- 1.5 X 10e-7 M", "format": "functional, tissue-based", "conditions": "Canis lupus familiaris"}, "[2]": {"biological_target": "T1, Alpha-1A adrenergic receptor (Homo sapiens)", "assay": "Effect of 1 uM external [Ca2+] on the contractions induced by compound in the canine saphenous vein at EC100 concentration and expressed as percent of control response in […] Ca+; absolute concentration 5.0 X 10e-5 M", "format": "functional, tissue-based", "conditions": "Canis lupus familiaris"}, "[3]": {"biological_target": "T1, Alpha-1A adrenergic receptor (Homo sapiens)", "assay": "Effect of 1 uM external [Ca2+] on the contractions induced by compound in the canine saphenous vein at EC25 concentration and expressed as percent of control response in […] Ca+; absolute concentration 1.5 +/-0.7 X 10e-7 M", "format": "functional, tissue-based", "conditions": "Canis lupus familiaris"}, "[4]": {"biological_target": "T1, Alpha-1A adrenergic receptor (Homo sapiens)", "assay": "Effect of zero external [Ca2+] on the contractions induced by acompound in the canine saphenous vein at EC50 concentration experimented in the presence of 2 mM EGTA and expressed as percent of control response in […] Ca+ physiological saline; abso", "format": "functional, tissue-based", "conditions": "Canis lupus familiaris"}, "[5]": {"biological_target": "T1, Alpha-1A adrenergic receptor (Homo sapiens)", "assay": "Effect of zero external [Ca2+] on the contractions induced by compound in the canine saphenous vein in the presence of 2 mM EGTA and expressed as percent of control response in […] Ca+ physiological saline; absolute concentration 1.5 +/-0.7 X 10e-", "format": "functional, tissue-based", "conditions": "Canis lupus familiaris"}, "[6]": {"biological_target": "T1, Alpha-1A adrenergic receptor (Homo sapiens)", "assay": "Effect of zero uM external [Ca2+] on the contractions induced by compound in the canine saphenous vein at EC100 concentration experimented in the presence of 2 mM EGTA and expressed as percent of control response in […] Ca+ physiological saline; absolute concentration 5.0 X 10e-5 M", "format": "functional, tissue-based", "conditions": "Canis lupus familiaris"}, "[7]": {"assay": "Dissociation constant against constrictor response to the compound blocked competitively by phentolamine for alpha-mediated events", "format": "functional"}},
  "note": "pKi: −log10 of the molar value.",
  "data": [
    {"compound": "CNCCc1ccc(O)c(NS(C)(=O)=O)c1", "values": [
      {"measurement": "Control response", "setting": "[1]", "value": 37.6, "unit": "%"},
      {"measurement": "Control response", "setting": "[2]", "value": 78.3, "unit": "%"},
      {"measurement": "Control response", "setting": "[3]", "value": 8.1, "unit": "%"},
      {"measurement": "Control response", "setting": "[4]", "value": 20.2, "unit": "%"},
      {"measurement": "Control response", "setting": "[5]", "value": 6, "unit": "%"},
      {"measurement": "Control response", "setting": "[6]", "value": 37.9, "unit": "%"},
      {"measurement": "pKi", "setting": "[7]", "value": "> 7.70"}
    ]}
  ]
}
